Data reported in patent US7084176B2, “N-arylphenylacetamide derivatives and medicinal compositions containing the same” (Dainippon Pharmaceutical Co., Ltd., priority 2001, dated 2006).
Like-named read-outs stand apart in the source and are kept apart here.

Key:
male Std:ddY mice = experiment: Phenyl-1,4-benzoquinone-induced writhing test; format: in vivo; conditions: for ED50 / ED50 (mg/kg sc) / ED50 (mg/kg po): logit analysis; for inhibition in vivo at 1 mg/kg / inhibition in vivo at 10 mg/kg: 1 h; for inhibition in vivo at 1 mg/kg: subcutaneously administered at a dose of 1 mg/kg
Protocol: Phenyl-1,4-benzoquinone-induced Writhing Test Referring to the method disclosed in Proc. Soc. exp. Biol. […] For oral administration, a test compound was suspended in 0.5% tragacanth solution. […] In the control group, a physiological saline solution containing 10% Tween 80 and 10% ethanol was administered in the case of subcutaneous administration, or a 0.5% tragacanth solution was administered in the case of oral administration. The number of writhing movements in the test compound-treated group was compared with that in the control group, and the writhing inhibitory percentage was calculated therefrom and considered as an analgesic effect. Writhing inhibitory percentage (%)=[(A−B)/A]×100 In the above equation, A means the number of writhing movements in the control group, and B means the number of writhing movements in the test compound-treated group. From the writhing inhibitory percentage of the test compound, ED50 (mg/kg) was calculated by logit analysis.

Jcl:SD strain male rats = experiment: Study of pungency (eye wiping test); format: in vivo; conditions: a drop into the eye of rats, counted for 3 minutes, average ± S.E.M.
Protocol: Experiment 2: Study of Pungency (Eye Wiping Test)
The pungency of the test compounds were studied referring to the method of Jancso et al. [Acta Physiol. Acad. Sci. Hung., 19, 113–131 (1961)] and the method of Szallasi et al. [Brit. J. Pharmacol., 119, 283–290 (1996)]. A test compound was dissolved in a physiological saline solution containing 10% ethanol and 10% Tween 80 into various concentrations (μg/ml), and a drop of the solution thereof was added dropwise into the eye of Jcl:SD strain male rats (5 to 25 […] per group, body weight; 220 to 280 g). Then, the number of the protective wiping movements with forefoot was counted for 3 minutes, and was considered as an index for pungency. The test results are expressed as average value±S.E.M., and the statistical significant differences between each test compound-treated group and the control group were analyzed using non-parametric Dunnett's multiple range test, and p<0.05 was considered as significant difference.

[1] = Mus musculus, po, oral administration, writhing inhibition, read-out: ED50 (mg/kg po)
[2] = Mus musculus, sc, 60 minutes before PBQ, read-out: Inhibitory percentage (%)
[3] = Mus musculus, sc, subcutaneous administration, writhing inhibition, read-out: ED50 (mg/kg sc)
[4] = Mus musculus, po, orally administered at a dose of 10 mg/kg, 60 minutes before PBQ, read-out: Inhibitory percentage (%)

| Compound | ED50 (male Std:ddY mice; [1]) [mg/kg] | inhibition in vivo at 1 mg/kg (male Std:ddY mice; [2]) [%] | inhibition in vivo at 10 mg/kg (male Std:ddY mice; [4]) [%] | Number of wiping movements (Jcl:SD strain male rats; concentration 500 μg/ml) | other results |
| --- | --- | --- | --- | --- | --- |
| COc1cc(CNC(=O)CCCC/C=C/C(C)C)ccc1O [Capsaicin, trans-8-methyl-N-vanillyl-6-nonenamide, reference compound] | > 30 | 46.6 |  |  | inhibition in vivo at 30 mg/kg (male Std:ddY mice; Mus musculus, po, orally administered at a dose of 30 mg/kg, read-out: Inhibitory percentage (%)): 20.6%; ED50 (male Std:ddY mice; [3]): 1.15 mg/kg; Number of wiping movements (Jcl:SD strain male rats; concentration 1 μg/ml): 6.0 ± 0.8; Number of wiping movements (Jcl:SD strain male rats; concentration 2 μg/ml): 7.8 ± 1.4; Number of wiping movements (Jcl:SD strain male rats; concentration 5 μg/ml): 11.2 ± 3.0; Number of wiping movements (Jcl:SD strain male rats; concentration 5 μg/ml, listed as capsaicin): significantly increased; Number of wiping movements (Jcl:SD strain male rats; concentration 10 μg/ml): 26.4 ± 6.0; Number of wiping movements (Jcl:SD strain male rats; concentration 20 μg/ml): 38.0 ± 4.8 |
| COc1cc(CC(=O)Nc2cccc(C3CCC(C(C)(C)C)CC3)c2)ccc1O (stereo not shown) [Example 20, N-[3-(4-tert-butylcyclohexan-1-yl)phenyl]-4-hydroxy-3-methoxyphenylacetamide] | 1.28 | 96.1 | 97.1 | 10.6 ± 0.7 | ED50 (male Std:ddY mice; [3]): ≤ 0.1 mg/kg; ED50 (mg/kg sc) (male Std:ddY mice; subcutaneous administration, writhing inhibition, listed as Ex. 20): 0.056 mg/kg; Number of wiping movements (Jcl:SD strain male rats; concentration 100 μg/ml): 5.0 ± 1.3 |
| COc1cc(CC(=O)Nc2cccc(CCc3ccccc3)c2)ccc1OCCN [Example 60, 4-(2-aminoethoxy)-3-methoxy-N-[3-(2-phenylethyl)phenyl]-phenylacetamide] | ≤ 1 | 50.5 |  | no significant increase | ED50 (male Std:ddY mice; [3]): 0.83 mg/kg; ED50 (mg/kg po) (male Std:ddY mice; oral administration, writhing inhibition, listed as Ex. 60): 0.68 mg/kg; Number of wiping movements (Jcl:SD strain male rats; concentration 500 μg/ml, listed as Ex. 60): 4.2 ± 1.2; Number of wiping movements (Jcl:SD strain male rats; concentration 1000 μg/ml): 8.4 ± 2.1 |
| COc1cc(CC(=O)Nc2cccc(C3CCCCC3)c2)ccc1OCCN [Example 61, 4-(2-aminoethoxy)-N-(3-cyclohexylphenyl)-3-methoxyphenylacetamide] | 3 | 72.8 | 89 | 15.6 ± 4.5 | ED50 (male Std:ddY mice; [3]): 0.13 mg/kg; Number of wiping movements (Jcl:SD strain male rats; concentration 20 μg/ml): 2.0 ± 0.8; Number of wiping movements (Jcl:SD strain male rats; concentration 100 μg/ml): 7.4 ± 2.1 |
| COc1cc(CC(=O)Nc2cccc(C3CCC(C(C)(C)C)CC3)c2)ccc1OCCN (stereo not shown) [Example 62, 4-(2-aminoethoxy)-N-[3-(4-tert-butylcyclohexan-1-yl)phenyl]-3-methoxyphenylacetamide] |  | 100 | 96.1 | no significant increase | ED50 (male Std:ddY mice; [3]): 0.23 mg/kg; ED50 (mg/kg po) (male Std:ddY mice; oral administration, writhing inhibition, listed as Ex. 62): 0.43 mg/kg; Number of wiping movements (Jcl:SD strain male rats; concentration 500 μg/ml, listed as Ex. 62): 4.6 ± 1.2; Number of wiping movements (Jcl:SD strain male rats; concentration 1000 μg/ml): 7.6 ± 1.4 |
| COc1cc(CC(=O)Nc2cccc(-c3cccc(F)c3)c2)ccc1OCCN [Example 66, 4-(2-aminoethoxy)-N-[3-(3-fluorophenyl)phenyl]-3-methoxyphenylacetamide] |  |  | 100 | no significant increase | Number of wiping movements (Jcl:SD strain male rats; concentration 100 μg/ml): 5.6 ± 2.4; Number of wiping movements (Jcl:SD strain male rats; concentration 500 μg/ml, listed as Ex. 66): 3.6 ± 1.6 |
| COc1cc(CC(=O)Nc2cccc(-c3ccc(Cl)cc3)c2)ccc1OCCN [Example 67, 4-(2-aminoethoxy)-N-[3-(4-chlorophenyl)phenyl]-3-methoxyphenylacetamide] |  |  | 90.2 | 13.4 ± 2.8 | Number of wiping movements (Jcl:SD strain male rats; concentration 100 μg/ml): 3.8 ± 1.3 |
| COc1cc(CC(=O)Nc2cccc(-c3ccc4c(c3)OCO4)c2)ccc1OCCN [Example 164, 4-(2-aminoethoxy)-N-[3-(2H-benzo[d]-1,3-dioxolan-5-yl)phenyl]-3-methoxyphenylacetamide] |  |  |  | no significant increase | ED50 (mg/kg po) (male Std:ddY mice; oral administration, writhing inhibition): 1.56 mg/kg; Inhibitory percentage (%) (male Std:ddY mice; writhing inhibition, orally administered at a dose of 10 mg/kg, 60 minutes before PBQ): 99.0%; Number of wiping movements (Jcl:SD strain male rats; concentration 100 μg/ml): 5.4 ± 2.8; Number of wiping movements (Jcl:SD strain male rats; concentration 500 μg/ml, listed as Ex. 164): 2.8 ± 1.7 |
| COc1cc(CC(=O)Nc2cccc(-c3cccc(C4CCCCC4)c3)c2)ccc1OCCN [Example 183, 4-(2-aminoethoxy)-N-[3-(3-cyclohexylphenyl)phenyl]-3-methoxyphenylacetamide] | 3.09 |  | 83.5 |  |  |
| COc1cc(CC(=O)Nc2cccc(-c3ccccc3C(C)(C)C)c2)ccc1OCCN [Example 184, 4-(2-aminoethoxy)-N-[3-(2-tert-butylphenyl)phenyl]-3-methoxyphenylacetamide] | ≤ 1 |  | 100 |  | ED50 (mg/kg po) (male Std:ddY mice; oral administration, writhing inhibition, listed as Ex. 184): 0.60 mg/kg |
| COc1cc(CC(=O)Nc2cccc(-c3cccc(Oc4ccccc4)c3)c2)ccc1OCCN [Example 186, 4-(2-aminoethoxy)-3-methoxy-N-[3-(3-phenoxyphenyl)phenyl]-phenylacetamide] | 1.83 |  | 84.3 | 12.2 ± 2.0 | Number of wiping movements (Jcl:SD strain male rats; concentration 100 μg/ml): 4.0 ± 1.1 |
| COc1cc(CC(=O)Nc2cccc([C@H]3CC[C@@H](C(C)(C)C)CC3)c2)ccc1OCCN [Example 194, 4-(2-aminoethoxy)-N-[3-[(cis)-4-tert-butylcyclohexan-1-yl]-phenyl]-3-methoxyphenylacetamide] | 1.05 |  | 96.2 |  |  |
| COc1cc(CC(=O)Nc2cccc([C@H]3CC[C@H](C(C)(C)C)CC3)c2)ccc1OCCN [Example 195, 4-(2-aminoethoxy)-N-[3-[(trans)-4-tert-butylcyclohexan-1-yl]-phenyl]-3-methoxyphenylacetamide] |  |  | 77.7 |  |  |
| COc1cc(CC(=O)Nc2cccc(N3CCCCC3)c2)ccc1OCCN [Example 197, 4-(2-aminoethoxy)-3-methoxy-N-[3-(piperidin-1-yl)phenyl]-phenylacetamide] | 5.26 |  | 89.1 |  |  |
| COc1cc(CC(=O)Nc2cccc(N3CCCC(C4CCCCC4)C3)c2)ccc1OCCN (stereo not shown) [Example 199, 4-(2-aminoethoxy)-N-[3-(3-cyclohexylpiperidin-1-yl)phenyl]-3-methoxyphenylacetamide] |  |  | 71.6 |  |  |
| COc1cc(CC(=O)Nc2cccc(N3CCCC(c4ccccc4)C3)c2)ccc1OCCN (stereo not shown) [Example 200, 4-(2-aminoethoxy)-3-methoxy-N-[3-(3-phenylpiperidin-1-yl)-phenyl]phenylacetamide] |  |  | 84.2 |  |  |
| COc1cc(CC(=O)Nc2cccc(N3CCCC4(CCCCC4)C3)c2)ccc1OCCN [Example 201, 4-(2-aminoethoxy)-3-methoxy-N-[3-(2-azaspiro[5, 5]undecan-2-yl)phenyl]phenylacetamide] | 2.04 |  | 100 |  |  |
| COc1cc(CC(=O)Nc2cccc(CCc3cccc(C)c3)c2)ccc1OCCN [Example 217, 4-(2-aminoethoxy)-3-methoxy-N-[3-[2-(3-methylphenyl)ethyl]-phenyl]phenylacetamide] | 1.13 |  | 96.3 |  |  |
| COc1cc(CC(=O)Nc2cccc(CCc3ccccc3F)c2)ccc1OCCN [Example 219, 4-(2-aminoethoxy)-3-methoxy-N-[3-[2-(2-fluorophenyl)ethyl]-phenyl]phenylacetamide] | 1.46 |  | 94 |  |  |
| COc1cc(CC(=O)Nc2ccc3ccn(Cc4ccccc4)c3c2)ccc1OCCN [Example 238, 4-(2-aminoethoxy)-3-methoxy-N-[1-benzylindol-6-yl]phenylacetamide] |  | 70.2 |  |  | ED50 (male Std:ddY mice; [3]): 0.37 mg/kg |
| COc1cc(CC(=O)Nc2ccc3c(c2)C(=O)C(Cc2ccccc2)CC3)ccc1O (stereo not shown) [Example 249, 4-hydroxy-3-methoxy-N-[1-oxo-2-phenylmethyl-1,2,3,4-tetrahydronaphthalen-7-yl]phenylacetamide] |  | 89.4 |  |  | ED50 (mg/kg sc) (male Std:ddY mice; subcutaneous administration, writhing inhibition, listed as Ex. 249): 0.043 mg/kg |
